IC50 data for one compound are collected here from US7550257B2, “Process for identifying substances which modulate the activity of hyperpolarization-activated cation channels” (Sanofi-Aventis Deutschland GmbH, priority 2000, dated 2009).

The structures appear in SMILES notation.

Assay [1] has as its target T1, muHCN2 (Mus musculus, UniProt O88703).
T1 construct: expressed in transfected cells
T1 sequence (O88703 1-863): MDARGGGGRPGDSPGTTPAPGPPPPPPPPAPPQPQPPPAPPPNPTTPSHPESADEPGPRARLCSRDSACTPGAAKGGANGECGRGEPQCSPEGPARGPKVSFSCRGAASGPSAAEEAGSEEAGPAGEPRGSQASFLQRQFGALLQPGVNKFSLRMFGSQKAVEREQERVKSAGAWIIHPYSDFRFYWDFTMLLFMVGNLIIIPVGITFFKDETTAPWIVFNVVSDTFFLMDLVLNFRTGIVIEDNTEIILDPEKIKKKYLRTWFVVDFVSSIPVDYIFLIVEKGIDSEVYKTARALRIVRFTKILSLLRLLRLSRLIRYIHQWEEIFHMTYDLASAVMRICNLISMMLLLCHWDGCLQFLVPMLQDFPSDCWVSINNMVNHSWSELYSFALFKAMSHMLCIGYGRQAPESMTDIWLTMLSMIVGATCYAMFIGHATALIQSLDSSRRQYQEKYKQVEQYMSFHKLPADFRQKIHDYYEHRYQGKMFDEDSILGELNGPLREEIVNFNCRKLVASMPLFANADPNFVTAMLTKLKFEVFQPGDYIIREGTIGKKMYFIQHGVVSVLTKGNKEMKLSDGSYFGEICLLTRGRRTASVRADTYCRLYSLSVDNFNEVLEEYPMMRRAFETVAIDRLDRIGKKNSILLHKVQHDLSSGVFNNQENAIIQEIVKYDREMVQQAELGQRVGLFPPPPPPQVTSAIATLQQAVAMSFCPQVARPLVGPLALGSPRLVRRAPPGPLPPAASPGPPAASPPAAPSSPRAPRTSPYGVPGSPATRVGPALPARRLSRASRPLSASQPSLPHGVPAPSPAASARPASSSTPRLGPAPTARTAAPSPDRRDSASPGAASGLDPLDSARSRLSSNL
The assay is described as follows: FLIPR membrane potential assay (DiBac4(3)) with transfected HCN cells. The assay is classed as cell-based, murine. The settings on record: muHCN2-transfected CHO cells, relative change in fluorescence from the time 60 seconds, mean of 6 wells per concentration, read-out: IC50 of zatebradine (inhibition calculated from relative change in fluorescence). As for the experimental part:
The cells seeded on the microtiter plates are washed in an isoosmolar buffer in which NaCl has been replaced by choline chloride. However, this wash buffer also contains 5 mM KCl, since extracellular K^+ is important for HCN activation (Biel et al. 1999). This wash buffer, which serves to effect hyperpolarization of the HCN cells, also contains 5 μM DiBac4(3) for measuring changes in the membrane potential in the FLIPR. By removing the extracellular Na^+, the cells are hyperpolarized, i.e. the HCN is activated. However, the HCN is not capable of causing depolarization of the cells, since the required concentration gradient of the ions Na^+ or K^+ transported by HCN is missing. […] This is reflected in the fact that the initial fluorescence measured for HCN cells in the FLIPR at 10 μM forskolin is lower than that without forskolin, whereas there is no difference in nontransfected cells.
Since DiBac4(3) fluorescence may be sensitive to temperature variations, the measurement is, after an incubation at 37° C. for 30 minutes, carried out as quickly as possible—cooling of the dye solution may affect the measured results. […]
In the FLIPR, Na^+ is added to the cells so that the activated HCN (after a few seconds, in which there are mixing effects) causes, from about 15 seconds after the addition of Na^+, depolarization of the cells, which becomes visible by an increase in fluorescence. […]

Assay [2] has as its target T1, muHCN2. Kind of assay: Patch-clamp (electrophysiological) examination in the same cells. It counts as cell-based, murine. Conditions: determined electrophysiologically in the same cells. The source says:
Using the patch-clamp method, the cells with detectable mRNA expression were examined electrophysiologically, in the whole-cell configuration, for functional expression of muHCN2. This method is described in detail in Hamill et al (1981), which is incorporated herein by reference. The cells were clamped to a holding potential of −40 mV. Starting with this holding potential, the ion channels were activated by a voltage change to […] for a period of one second. The current amplitude was determined the end of this pulse. Among the transfected HEK cells, some were found having currents of about 1 nA; however, owing to interfering endogenous currents, it was not possible to construct an assay for these cells in the FLIPR.
Electrophysiologically, currents of up to 11 nA were measured. These cells were used for constructing an FLIPR assay for HCN2.
Using the transfected HCN cells, the effect of various concentrations of the substance zatebradine, which is known as an If blocker, were examined. The inhibition by zatebradine was calculated from the relative change in fluorescence from the time 60 seconds. For each concentration of the inhibitor, the mean of in each case 6 wells of the microtiter plate was determined.

Turning to `COc1ccc(CCN(C)CCCN2CCc3cc(OC)c(OC)cc3CC2=O)cc1OC` [zatebradine, 3-[3-[[2-(3,4-dimethoxyphenyl)ethyl]methylamino]propyl]-1,3,4,5-tetrahydro-7,8-dimethoxy-2H-3-benzazepin-2-one], the IC50 is 26 µM in assay [1] and 31 µM in assay [2].
